Here are results for 2 compounds from patent US20130023496A1, “Combination Therapy Comprising A CCR5 Antagonist, A HIV-1 Protease Inhibtior and a Pharmacokinetic Enhancer” (priority 2010, published 2013).

One experiment deals with CCR5 tropic HIV-1 virus. As to conditions: maraviroc 300 mg QD arm, preliminary results; cited from earlier work.
In a further experiment the test system is CCR5-tropic HIV. In words: Randomized controlled study of atazanavir/ritonavir QD with maraviroc or Truvada in treatment-naïve patients, 24 weeks. The experiment is classed as in vivo, human. Conditions: with atazanavir 300 mg QD and ritonavir 100 mg QD. From the text: To ascertain whether a once daily, nucleoside-sparing regimen using a CCR5 antagonist could be safely and efficaciously administered to HIV-positive patients infected with CCR5-tropic HIV, a randomized, controlled study is being conducted.

In a further experiment the test system is HIV-1. As to conditions: 48 weeks; atazanavir 300 mg/ritonavir 100 mg QD with Truvada versus lopinavir/r; cited from earlier work.

Consider “N-{(1S)-3-[3-(3-isopropyl-5-methyl-4H-1,2,4-triazol-4-yl)-exo-8-azabicyclo[3.2.1]oct-8-yl]-1-phenylpropyl}-4, 4-difluorocyclohexanecarboxamide [maraviroc]”, for which, in the experiment with CCR5 tropic HIV-1 virus, the “non-inferiority versus the efavirenz arm” value is on record as “did not meet the regulatory prespecified criteria for non-inferiority”. Moreover, the “increase in CD4+” value in the experiment with CCR5-tropic HIV (after 24 weeks) was 195 cells. For the same compound, in the experiment on CCR5-tropic HIV (week 24, HIV-1 RNA), the “percentage of patients who achieved less than 50 copies/mL” value is given as 80% and the “percentage of patients who achieved less than 400 copies/mL” value is listed as 90%.

With `COC(=O)N[C@H](C(=O)N[C@@H](Cc1ccccc1)[C@@H](O)CN(Cc1ccc(-c2ccccn2)cc1)NC(=O)[C@@H](NC(=O)OC)C(C)(C)C)C(C)(C)C` [atazanavir], the “non-inferiority primary endpoint of undetectable viral load (HIV-1 RNA less than 50 copies/mL)” value with HIV-1 is on record as “met the non-inferiority primary endpoint”.
